Measurements taken from patent US4503244A, “Sebosuppressive topical cosmetic preparations containing alkoxybenzoic acid esters, process for inhibiting sebum production and alkoxybenzoic acid esters” (Henkel Kommanditgesellschaft, priority 1983, dated 1985).

Key:
[1] = system: brown skin surface lipid of the rats; assay: Antiseborrheic effect: browning of the shaved back of rats, visually assessed (half-back application, 14 days); assay type: in vivo, male Wistar rats; settings: for Sebum reduction: (ΔP/Pk)·100
From the text: The antiseborrheic effect was closely studied using the animal tests described in the following:
The test animals were male Wistar rats having a body weight of 220 to 230 g at the beginning of the tests. The degree of browning on the shaved back of the rats was visually assessed. Browning is produced by the brown skin surface lipid of the rats. This test is based on the observation that young female rats and also male rats washed with a tenside solution or with a lipid solvent and also male rats systematically treated with estrogen only have the normal light, pink-colored skin after shaving. At the same time, only comparatively very small quantities of lipids can be extracted from the shaved hair.
In order to assess effectiveness, the test substances in solution in alcohol were each brushed onto half the back of 6 rats. The other half was only treated with the solvent minus active substances.
Over the test period of 14 days, the test substances were applied once daily for a total of 9 days. A group of 6 rats which remained completely untreated was used for further control. At the end of the test, the animals were shaved on their back and sides and were visually assessed independently by an examination panel of 6 people under double blind conditions.
The first criterion evaluated was whether the majority of examiners correctly recognized the treated side, differentiation being carried out as follows:
The second criterion evaluated was the difference between the righthand side and the lefthand side, each examiner having to award 1 point per animal on the following basis:
lighter side--0 point and
both sides the same--0.5 point
Significant differences between the untreated and treated sides in the second method of evaluation indicate the local effectiveness of a substance.
The third criterion evaluated was the difference in intensity between the shades of brown using the following scale:
In the third method or evaluation, the points total differences are worked out between the untreated control animals and the treated and untreated sides of the test animals, significant differences between the control animals and the treated side of the test animals again indicating the effectiveness of a substance.
At the same time, there is generally also a distinct difference between the untreated and treated sides of the groups of test animals. However, this difference is not always as clear as that between the control animals and the treated sides, for which there may be various reasons, including for example mechanical transfer of substance from one side to the other or solvent influence.
The following scheme was used for differentiating the effects according to evaluation methods 2 and 3:
Percentage sebum reduction
The sebum reduction is calculated from the points difference by working out the quotient between the points difference ΔP and the number of points for the control group Pk and expressing the value obtained in percent.
Sebum reduction=(ΔP/Pk)·100[%]

[2] = system: seborrhea / production of sebum; settings: background art; cited from earlier work

SMILES | Evaluation method 1 (percentage of examiners noticing an effect) ([1]; Conc. 0.1% in alcohol) | Evaluation method 2 (points difference between treated and untreated side) ([1]; Conc. 0.1% in alcohol) | Evaluation method 3 (difference in intensity between shades of brown vs untreated control animals) ([1]; Conc. 0.1% in alcohol) | Sebum reduction ([1]; Conc. 0.1% in alcohol) [%] | Evaluation method 1 (percentage of examiners noticing an effect) ([1]; Conc. 1.0% in alcohol) | Evaluation method 2 (points difference between treated and untreated side) ([1]; Conc. 1.0% in alcohol) | Evaluation method 3 (difference in intensity between shades of brown vs untreated control animals) ([1]; Conc. 1.0% in alcohol) | Sebum reduction ([1]; Conc. 1.0% in alcohol) [%] | other results
CCCCCCCCCCOc1ccc(C(=O)OCCOC)cc1 [A, p-decyloxybenzoic acid 2-methoxy-ethyl ester] | ++ (100%) | ++ (very large (≥99.9% probability)) | ++ (very large (≥99.9% probability)) | 69 | ++ (100%) | ++ (very large (≥99.9% probability)) | ++ (very large (≥99.9% probability)) | 100 | 
CCCCCCCCCCOc1ccc(C(=O)OCCN(CC)CC)cc1 [E, p-decyloxybenzoic acid 2-diethylaminoethyl ester] | ++ (100%) | ++ (very large (≥99.9% probability)) | ++ (very large (≥99.9% probability)) | 80 | ++ (100%) | ++ (very large (≥99.9% probability)) | ++ (very large (≥99.9% probability)) | 90 | 
CCCCCCCCCCOc1ccc(C(=O)OCCOCCOC)cc1 [C, p-decyloxybenzoic acid 2-(2-methoxyethoxy)-ethyl ester] | ++ (100%) | ++ (very large (≥99.9% probability)) | ++ (very large (≥99.9% probability)) | 26 | ++ (100%) | ++ (very large (≥99.9% probability)) | ++ (very large (≥99.9% probability)) | 100 | 
CCCCCCCCCCOc1ccc(C(=O)OCCO)cc1 [D, p-decyloxybenzoic acid 2-hydroxy-ethyl ester] |  |  |  |  | ++ (100%) | ++ (very large (≥99.9% probability)) | ++ (very large (≥99.9% probability)) | 98 | 
CCCCCCCCCCOc1ccc(C(=O)OCCOCC)cc1 [B, p-decyloxybenzoic acid 2-ethoxy-ethyl ester] | ++ (100%) | ++ (very large (≥99.9% probability)) | ++ (very large (≥99.9% probability)) | 30 | ++ (100%) | ++ (very large (≥99.9% probability)) | ++ (very large (≥99.9% probability)) | 93 | 
CCCCCCCCCCOc1ccc(C(=O)OCC(=O)OC)cc1 [G, p-decyloxybenzoyloxy-acetic acid methyl ester] |  |  |  |  |  |  |  |  | Evaluation method 1 (percentage of examiners noticing an effect) ([1]; Conc. 0.5% in alcohol): ++ (100%); Evaluation method 2 (points difference between treated and untreated side) ([1]; Conc. 0.5% in alcohol): ++ (very large (≥99.9% probability)); Evaluation method 3 (difference in intensity between shades of brown vs untreated control animals) ([1]; Conc. 0.5% in alcohol): ++ (very large (≥99.9% probability)); Sebum reduction ([1]; Conc. 0.5% in alcohol): 82%
O=C(O)C=CC=Cc1ccccc1 [phenylpentadienoic acid] |  |  |  |  |  |  |  |  | sebosuppressive / antiseborrheic effect of known substances [2]: neither N,N-diethyl-m-toluamide nor phenylpentadienoic acid show, however, fully satisfactory sebosuppressive properties
CCCCCCCCCCCCOc1ccc(C(=O)OCCOC)cc1 [F, p-dodecyloxybenzoic acid 2-methoxy-ethyl ester] |  |  |  |  | ++ (100%) | ++ (very large (≥99.9% probability)) | ++ (very large (≥99.9% probability)) | 91 | Evaluation method 1 (percentage of examiners noticing an effect) ([1]; Conc. 0.2% in alcohol): ++ (100%); Evaluation method 2 (points difference between treated and untreated side) ([1]; Conc. 0.2% in alcohol): ++ (very large (≥99.9% probability)); Evaluation method 3 (difference in intensity between shades of brown vs untreated control animals) ([1]; Conc. 0.2% in alcohol): ++ (very large (≥99.9% probability)); Sebum reduction ([1]; Conc. 0.2% in alcohol): 92%
CCN(CC)C(=O)c1cccc(C)c1 [N,N-diethyl-m-toluamide] |  |  |  |  |  |  |  |  | sebosuppressive / antiseborrheic effect of known substances [2]: neither N,N-diethyl-m-toluamide nor phenylpentadienoic acid show, however, fully satisfactory sebosuppressive properties
